From ChEMBL document CHEMBL5724914, “Linking interpersonal differences in gut microbiota composition and drug biotransformation activity” (2024)

Details: human gut metagenome, 24 h, 2 µM
Note: call rule not given here.

Bacterial Biotransformation	Compound
Compound NOT metabolized	CCOC(=O)[C@H](CCc1ccccc1)N[C@H]1CCc2ccccc2N(CC(=O)O)C1=O [BENAZEPRIL]
Compound NOT metabolized	C=CCc1ccccc1OCC(O)CNC(C)C (stereo not given) [ALPRENOLOL]
Compound NOT metabolized	OC(CCN1CCCCC1)(c1ccccc1)C1CCCCC1 (stereo not given) [TRIHEXYPHENIDYL]
Compound metabolized	CNC(=C[N+](=O)[O-])NCCSCc1csc(CN(C)C)n1 [NIZATIDINE]

Details: human gut metagenome, 24 h, 2 µM
Remark: another data set of the same source

Bacterial Biotransformation	Compound
Compound metabolized	CCOC(=O)[C@H](CCc1ccccc1)N[C@H]1CCc2ccccc2N(CC(=O)O)C1=O [BENAZEPRIL]
Compound NOT metabolized	C=CCc1ccccc1OCC(O)CNC(C)C (stereo not given) [ALPRENOLOL]
Compound NOT metabolized	OC(CCN1CCCCC1)(c1ccccc1)C1CCCCC1 (stereo not given) [TRIHEXYPHENIDYL]
Compound metabolized	CNC(=C[N+](=O)[O-])NCCSCc1csc(CN(C)C)n1 [NIZATIDINE]

Assay: (§1) The drug is tested on WLS-082 corresponding to human gut metagenome with ENA study accession number: PRJEB37062 and ENA sample accession number: ERS12561751 for biotransformation under anaerobic condition. The drug concentrations were measured over 9 timepoints collected between 0 and 24 hours of incubation by liquid-chromatography-coupled mass spectrometry (LC–MS)
Details: 2 µM

Bacterial Biotransformation	Compound
Compound metabolized	CCOC(=O)[C@H](CCc1ccccc1)N[C@H]1CCc2ccccc2N(CC(=O)O)C1=O [BENAZEPRIL]
Compound NOT metabolized	C=CCc1ccccc1OCC(O)CNC(C)C (stereo not given) [ALPRENOLOL]
Compound NOT metabolized	OC(CCN1CCCCC1)(c1ccccc1)C1CCCCC1 (stereo not given) [TRIHEXYPHENIDYL]
Compound NOT metabolized	CNC(=C[N+](=O)[O-])NCCSCc1csc(CN(C)C)n1 [NIZATIDINE]

Details: human gut metagenome, 24 h, 2 µM
Remark: another data set of the same source

Bacterial Biotransformation	Compound
Compound metabolized	CCOC(=O)[C@H](CCc1ccccc1)N[C@H]1CCc2ccccc2N(CC(=O)O)C1=O [BENAZEPRIL]
Compound NOT metabolized	C=CCc1ccccc1OCC(O)CNC(C)C (stereo not given) [ALPRENOLOL]
Compound NOT metabolized	OC(CCN1CCCCC1)(c1ccccc1)C1CCCCC1 (stereo not given) [TRIHEXYPHENIDYL]
Compound NOT metabolized	CNC(=C[N+](=O)[O-])NCCSCc1csc(CN(C)C)n1 [NIZATIDINE]

Details: human gut metagenome, 24 h, 2 µM
Remark: another data set of the same source

Bacterial Biotransformation	Compound
Compound metabolized	CCOC(=O)[C@H](CCc1ccccc1)N[C@H]1CCc2ccccc2N(CC(=O)O)C1=O [BENAZEPRIL]
Compound NOT metabolized	C=CCc1ccccc1OCC(O)CNC(C)C (stereo not given) [ALPRENOLOL]
Compound metabolized	OC(CCN1CCCCC1)(c1ccccc1)C1CCCCC1 (stereo not given) [TRIHEXYPHENIDYL]
Compound NOT metabolized	CNC(=C[N+](=O)[O-])NCCSCc1csc(CN(C)C)n1 [NIZATIDINE]

Details: human gut metagenome, 24 h, 2 µM
Remark: another data set of the same source

Bacterial Biotransformation	Compound
Compound metabolized	CCOC(=O)[C@H](CCc1ccccc1)N[C@H]1CCc2ccccc2N(CC(=O)O)C1=O [BENAZEPRIL]
Compound metabolized	C=CCc1ccccc1OCC(O)CNC(C)C (stereo not given) [ALPRENOLOL]
Compound metabolized	OC(CCN1CCCCC1)(c1ccccc1)C1CCCCC1 (stereo not given) [TRIHEXYPHENIDYL]
Compound metabolized	CNC(=C[N+](=O)[O-])NCCSCc1csc(CN(C)C)n1 [NIZATIDINE]

Assay: as §1, with “Z-009” for “WLS-082”, “pig” for “human”, “ERS12561809” for “ERS12561751”
Details: 2 µM

Bacterial Biotransformation	Compound
Compound metabolized	CCOC(=O)[C@H](CCc1ccccc1)N[C@H]1CCc2ccccc2N(CC(=O)O)C1=O [BENAZEPRIL]
Compound NOT metabolized	C=CCc1ccccc1OCC(O)CNC(C)C (stereo not given) [ALPRENOLOL]
Compound metabolized	OC(CCN1CCCCC1)(c1ccccc1)C1CCCCC1 (stereo not given) [TRIHEXYPHENIDYL]
Compound NOT metabolized	CNC(=C[N+](=O)[O-])NCCSCc1csc(CN(C)C)n1 [NIZATIDINE]

Details: human gut metagenome, 24 h, 2 µM
Remark: another data set of the same source

Bacterial Biotransformation	Compound
Compound metabolized	CCOC(=O)[C@H](CCc1ccccc1)N[C@H]1CCc2ccccc2N(CC(=O)O)C1=O [BENAZEPRIL]
Compound metabolized	C=CCc1ccccc1OCC(O)CNC(C)C (stereo not given) [ALPRENOLOL]
Compound metabolized	OC(CCN1CCCCC1)(c1ccccc1)C1CCCCC1 (stereo not given) [TRIHEXYPHENIDYL]
Compound metabolized	CNC(=C[N+](=O)[O-])NCCSCc1csc(CN(C)C)n1 [NIZATIDINE]

Assay: as §1, with “Z-013” for “WLS-082”, “rabbit” for “human”, “ERS12561813” for “ERS12561751”
Details: 2 µM

Bacterial Biotransformation	Compound
Compound NOT metabolized	CCOC(=O)[C@H](CCc1ccccc1)N[C@H]1CCc2ccccc2N(CC(=O)O)C1=O [BENAZEPRIL]
Compound NOT metabolized	C=CCc1ccccc1OCC(O)CNC(C)C (stereo not given) [ALPRENOLOL]
Compound NOT metabolized	OC(CCN1CCCCC1)(c1ccccc1)C1CCCCC1 (stereo not given) [TRIHEXYPHENIDYL]
Compound NOT metabolized	CNC(=C[N+](=O)[O-])NCCSCc1csc(CN(C)C)n1 [NIZATIDINE]

Details: human gut metagenome, 24 h, 2 µM
Remark: another data set of the same source

Bacterial Biotransformation	Compound
Compound metabolized	CCOC(=O)[C@H](CCc1ccccc1)N[C@H]1CCc2ccccc2N(CC(=O)O)C1=O [BENAZEPRIL]
Compound NOT metabolized	C=CCc1ccccc1OCC(O)CNC(C)C (stereo not given) [ALPRENOLOL]
Compound NOT metabolized	OC(CCN1CCCCC1)(c1ccccc1)C1CCCCC1 (stereo not given) [TRIHEXYPHENIDYL]
Compound metabolized	CNC(=C[N+](=O)[O-])NCCSCc1csc(CN(C)C)n1 [NIZATIDINE]

Assay: as §1, with “Z-001” for “WLS-082”, “mouse” for “human”, “ERS12561801” for “ERS12561751”
Details: 2 µM

Bacterial Biotransformation	Compound
Compound metabolized	CCOC(=O)[C@H](CCc1ccccc1)N[C@H]1CCc2ccccc2N(CC(=O)O)C1=O [BENAZEPRIL]
Compound NOT metabolized	C=CCc1ccccc1OCC(O)CNC(C)C (stereo not given) [ALPRENOLOL]
Compound metabolized	OC(CCN1CCCCC1)(c1ccccc1)C1CCCCC1 (stereo not given) [TRIHEXYPHENIDYL]
Compound NOT metabolized	CNC(=C[N+](=O)[O-])NCCSCc1csc(CN(C)C)n1 [NIZATIDINE]

Assay: as §1, with “Z-027” for “WLS-082”, “to” for “to human gut”, “ERS12561826” for “ERS12561751”
Details: 2 µM

Bacterial Biotransformation	Compound
Compound NOT metabolized	CCOC(=O)[C@H](CCc1ccccc1)N[C@H]1CCc2ccccc2N(CC(=O)O)C1=O [BENAZEPRIL]
Compound metabolized	C=CCc1ccccc1OCC(O)CNC(C)C (stereo not given) [ALPRENOLOL]
Compound NOT metabolized	OC(CCN1CCCCC1)(c1ccccc1)C1CCCCC1 (stereo not given) [TRIHEXYPHENIDYL]
Compound NOT metabolized	CNC(=C[N+](=O)[O-])NCCSCc1csc(CN(C)C)n1 [NIZATIDINE]

Assay: as §1, with “Z-020” for “WLS-082”, “rabbit” for “human”, “ERS12561819” for “ERS12561751”
Details: 2 µM

Bacterial Biotransformation	Compound
Compound metabolized	CCOC(=O)[C@H](CCc1ccccc1)N[C@H]1CCc2ccccc2N(CC(=O)O)C1=O [BENAZEPRIL]
Compound NOT metabolized	C=CCc1ccccc1OCC(O)CNC(C)C (stereo not given) [ALPRENOLOL]
Compound metabolized	OC(CCN1CCCCC1)(c1ccccc1)C1CCCCC1 (stereo not given) [TRIHEXYPHENIDYL]
Compound NOT metabolized	CNC(=C[N+](=O)[O-])NCCSCc1csc(CN(C)C)n1 [NIZATIDINE]

Assay: as §1, with “WLS-006” for “WLS-082”, “ERS12561741” for “ERS12561751”
Details: 2 µM

Bacterial Biotransformation	Compound
Compound metabolized	CCOC(=O)[C@H](CCc1ccccc1)N[C@H]1CCc2ccccc2N(CC(=O)O)C1=O [BENAZEPRIL]
Compound NOT metabolized	C=CCc1ccccc1OCC(O)CNC(C)C (stereo not given) [ALPRENOLOL]
Compound metabolized	OC(CCN1CCCCC1)(c1ccccc1)C1CCCCC1 (stereo not given) [TRIHEXYPHENIDYL]
Compound metabolized	CNC(=C[N+](=O)[O-])NCCSCc1csc(CN(C)C)n1 [NIZATIDINE]

Details: human gut metagenome, 24 h, 2 µM
Remark: another data set of the same source

Bacterial Biotransformation	Compound
Compound NOT metabolized	CCOC(=O)[C@H](CCc1ccccc1)N[C@H]1CCc2ccccc2N(CC(=O)O)C1=O [BENAZEPRIL]
Compound NOT metabolized	C=CCc1ccccc1OCC(O)CNC(C)C (stereo not given) [ALPRENOLOL]
Compound metabolized	OC(CCN1CCCCC1)(c1ccccc1)C1CCCCC1 (stereo not given) [TRIHEXYPHENIDYL]
Compound metabolized	CNC(=C[N+](=O)[O-])NCCSCc1csc(CN(C)C)n1 [NIZATIDINE]

Assay: as §1, with “Z-007” for “WLS-082”, “rat” for “human”, “ERS12561807” for “ERS12561751”
Details: 2 µM

Bacterial Biotransformation	Compound
Compound metabolized	CCOC(=O)[C@H](CCc1ccccc1)N[C@H]1CCc2ccccc2N(CC(=O)O)C1=O [BENAZEPRIL]
Compound NOT metabolized	C=CCc1ccccc1OCC(O)CNC(C)C (stereo not given) [ALPRENOLOL]
Compound NOT metabolized	OC(CCN1CCCCC1)(c1ccccc1)C1CCCCC1 (stereo not given) [TRIHEXYPHENIDYL]
Compound NOT metabolized	CNC(=C[N+](=O)[O-])NCCSCc1csc(CN(C)C)n1 [NIZATIDINE]

Assay: as §1, with “Z-028” for “WLS-082”, “mouse” for “human”, “ERS12561827” for “ERS12561751”
Details: 2 µM

Bacterial Biotransformation	Compound
Compound metabolized	CCOC(=O)[C@H](CCc1ccccc1)N[C@H]1CCc2ccccc2N(CC(=O)O)C1=O [BENAZEPRIL]
Compound NOT metabolized	C=CCc1ccccc1OCC(O)CNC(C)C (stereo not given) [ALPRENOLOL]
Compound NOT metabolized	OC(CCN1CCCCC1)(c1ccccc1)C1CCCCC1 (stereo not given) [TRIHEXYPHENIDYL]
Compound NOT metabolized	CNC(=C[N+](=O)[O-])NCCSCc1csc(CN(C)C)n1 [NIZATIDINE]

Details: human gut metagenome, 24 h, 2 µM
Remark: another data set of the same source

Bacterial Biotransformation	Compound
Compound metabolized	CCOC(=O)[C@H](CCc1ccccc1)N[C@H]1CCc2ccccc2N(CC(=O)O)C1=O [BENAZEPRIL]
Compound metabolized	C=CCc1ccccc1OCC(O)CNC(C)C (stereo not given) [ALPRENOLOL]
Compound metabolized	OC(CCN1CCCCC1)(c1ccccc1)C1CCCCC1 (stereo not given) [TRIHEXYPHENIDYL]
Compound metabolized	CNC(=C[N+](=O)[O-])NCCSCc1csc(CN(C)C)n1 [NIZATIDINE]

Details: human gut metagenome, 24 h, 2 µM
Remark: another data set of the same source

Bacterial Biotransformation	Compound
Compound metabolized	CCOC(=O)[C@H](CCc1ccccc1)N[C@H]1CCc2ccccc2N(CC(=O)O)C1=O [BENAZEPRIL]
Compound metabolized	C=CCc1ccccc1OCC(O)CNC(C)C (stereo not given) [ALPRENOLOL]
Compound NOT metabolized	OC(CCN1CCCCC1)(c1ccccc1)C1CCCCC1 (stereo not given) [TRIHEXYPHENIDYL]
Compound metabolized	CNC(=C[N+](=O)[O-])NCCSCc1csc(CN(C)C)n1 [NIZATIDINE]

Assay: as §1, with “Z-024” for “WLS-082”, “pig” for “human”, “ERS12561823” for “ERS12561751”
Details: 2 µM

Bacterial Biotransformation	Compound
Compound metabolized	CCOC(=O)[C@H](CCc1ccccc1)N[C@H]1CCc2ccccc2N(CC(=O)O)C1=O [BENAZEPRIL]
Compound metabolized	C=CCc1ccccc1OCC(O)CNC(C)C (stereo not given) [ALPRENOLOL]
Compound metabolized	OC(CCN1CCCCC1)(c1ccccc1)C1CCCCC1 (stereo not given) [TRIHEXYPHENIDYL]
Compound NOT metabolized	CNC(=C[N+](=O)[O-])NCCSCc1csc(CN(C)C)n1 [NIZATIDINE]
